In patent US12589114B2 (The Board of Trustees of the Leland Stanford Junior …, priority 2019, dated 2026):

Experiments:
GABRR1 [1] = molecular target: T1, GABRR1 (Mus musculus, UniProt P56475); assay: Complete blood cell counts in peripheral blood of mice treated with agonists or antagonists of Gabrr1; format: in vivo; conditions: C57BL/6J mice, 7 days of treatment, injected once every day
T1 construct: Mice were randomly grouped and injected once everyday using GABA agonists and antagonists; from tissue; host or cells: whole animal (C57BL/6J mice); read-outs in peripheral blood and bone marrow
T1 sequence (P56475 22-480): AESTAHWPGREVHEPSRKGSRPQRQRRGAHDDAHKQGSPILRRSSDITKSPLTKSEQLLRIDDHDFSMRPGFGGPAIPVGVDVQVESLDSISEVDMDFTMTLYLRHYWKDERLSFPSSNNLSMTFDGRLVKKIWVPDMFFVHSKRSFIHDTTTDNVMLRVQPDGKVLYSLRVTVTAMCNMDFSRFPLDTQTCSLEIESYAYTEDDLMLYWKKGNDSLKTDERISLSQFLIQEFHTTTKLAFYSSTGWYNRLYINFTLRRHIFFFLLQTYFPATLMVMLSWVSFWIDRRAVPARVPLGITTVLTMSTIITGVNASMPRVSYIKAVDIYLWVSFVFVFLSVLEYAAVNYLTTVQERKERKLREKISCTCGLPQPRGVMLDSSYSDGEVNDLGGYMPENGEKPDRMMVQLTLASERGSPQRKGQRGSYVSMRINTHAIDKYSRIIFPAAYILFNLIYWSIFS
Protocol: (§1) Mouse injection. […] Muscimol 2 mg/kg, TACA 2 mg/kg and SR95531 4 mg/kg was injected by i.p. The mice were treated for 7 days and then complete blood cell counting was done with the HemaTrue Hematology Analyzer (HESKE).

GABRR1 [2] = molecular target: T1, GABRR1; assay: Flow cytometry of bone marrow HSPC populations of mice treated with agonists or antagonists of Gabrr1; format: in vivo; conditions: C57BL/6J mice, 7 days of treatment
Protocol: as §1
Flow Cytometry. Mouse bone marrow cells were harvested, washed, and resuspended in PBS containing 2% FBS, and subjected to the staining process with antibodies at their optimal concentrations. […] Then, to enrich HSCs and progenitor populations, cells were stained with APC-conjugated anti-c-Kit (2B8) and then with anti-APC magnetic beads (Miltenyi Biotec) after washing. The c-Kit+cells were eluted from LS columns (Miltenyi Biotec). Those cells then stained with the antibody cocktail directed against cell surface antigens as follows: for early progenitor analysis, Sca-1, Flk2, CD150, CD34, IL-7R, CD16/32, c-kit and the lineage markers Ter-119, B220, CD3, CD4, CD8a, Gr-1, CD11b, CD41. For late stage populations, cells were stained with antibodies specific for Sca-1, Endoglin [CD105], CD150, CD16/32, c-kit [CD117] and the lineage markers for 30 min at 4° C., DNA dye was used for the live/dead cells staining.
Surface marker cocktail of mouse hematopoietic stem and progenitor populations: • HSC: Lin-c-kit+Sca1+CD150+Endoglin+ • MPP: Lin-c-kit+Sca1+Endoglin−CD150− • GMP: Lin-c-kit+Sca1− CD41−FcgRII+ • EP: Lin-c-kit+Sca1− CD41−FcgRII−Endogilin+CD150− • MkP: Lin-c-kit+Sca1− CD150+CD41+ • PreGM: Lin-c-kit+Sca1− CD41−FcgRII−Endogilin−CD150− • Pre CFU-E: Lin-c-kit+Sca1− CD41−FcgRII−Endogilin+CD150+ • MEP: Lin-c-kit+Sca1− CD41−FcgRII−Endogilin−CD150+.

human CD34+ cells [3] = assay: CFU-MK colony-forming assay from CD34+ bone marrow cells; format: cell-based
Protocol: (§2) We treated human CD34+ cells with different agonists and antagonists of GABRR1.
Colony-Forming Unit Assay. Colony forming assay was performed using the MegaCult™-C Complete Kit with Cytokines (Stemcell Tech, 04971)) following manufacturer's instruction, Colonies were counted after 12-14 days of culture and megakaryopoietic colonies were stained using antibody provided in the kit.

human CD34+ cells [4] = assay: Flow cytometry of HSPC populations after 7-day differentiation of human CD34+ cells treated with agonists or antagonists of GABRR1; format: cell-based
Protocol: as §2
Cell Isolation and Culture. Human bone marrow mononuclear cells were purchased from AllCells and cultured in StemSpan™ Serum-Free Expansion Medium II (SFEM II, StemCell Technologies), supplemented with 20 ng/ml hSCF (PeproTech), hTPO, hIL-3, hIL-6 and Flt3 (R&D Systems). Mouse bone marrow mononuclear cells were isolated from mice and cultured in StemSpan™ SFEMI (StemCell Technologies), supplemented with mTPO and mSCF (PeproTech). […] Medium was changed every other day.
Human bone marrow or cord blood cells were stained in a similar way using Rat IgG for blocking and PI for viability. Human cells were stained with the antibodies cocktails as follows: CD34, CD38, CD45RA, CD123, CD71, CD105, CD41 and the lineage markers CD2, CD4, CD8, CD11b/Mac-1, CD14, CD19, CD20, CD56 and CD235a. The GABRR1 antibodies were also used for staining (Bloss Antibodies).
Surface marker cocktail of human hematopoietic stem and progenitor populations: • HSCs/MPPs: Lin-CD34+CD38− • MkP: Lin-CD34+CD38+CD123−CD45RA−CD41+ • CMP: Lin-CD34+CD38+CD123lowCD45RA− • MEP: Lin-CD34+CD38+CD123−CD45RA− • GMP: Lin-CD34+CD38+CD123+CD45RA+ • EP: Lin-CD34+CD38+CD123−CD45RA−CD71+CD150+.

GABRR1 [5] = molecular target: T1, GABRR1; assay: Patch-clamp recording of GABA-evoked currents in purified GR+ and GR− MkPs and HSCs; format: cell-based; conditions: 1 mM GABA, whole-cell patch clamp
Description: Gabrr1^+ (GR^+) and Gabrr1^− (GR^−) HSCs or MkPs cells were then purified and tested by electrophysiological recording using patch-clamp techniques.
Electrophysiology. Whole-cell voltage-clamped recordings were made from the dissociated blood cells perfused in oxygenated ACSF containing the following (in mM): 119 NaCl, 26 NaHCO3, 10 glucose, 1.25 NaH2PO4, 2.5 KCl, 2 CaCl2, 1 MgCl2, 2 Na-pyruvate, and 0.5 ascorbic acid, pH 7.4. […] Cells were voltage clamped at various levels between −80 mV to 60 mV. The pipette internal solution contains (in mM): 120 Cs—Cl, 20 tetraethylammonium-Cl, 20 HEPES, 2 EGTA, 4 MgATP, 0.4 NaGTP, 10 phosphocreatine.
The drug was applied through a second pipette (resistance of 3-4 MΩ) connected to Picospritzer (Cleveland, OH, USA) at a pulse duration of 100 ms and pressure of 5-10 kPa.

human CD34+ cells [6] = assay: Real-time PCR of megakaryocyte-related genes in 7-day differentiated cells from CD34+ bone marrow cells; format: cell-based
Protocol: as §2
RNA isolation and Real-Time PCR. Total RNA was extracted by RNeasy Plus Micro kit and RNeasy MinElute Cleanup Kit following manufacturer's instructions (Qiagen). Synthesis of cDNA was performed with the SuperScript™ III Reverse Transcriptase (ThermoFisher Scientific). Real time PCR was done using the Fast SYBR® Green Master Mix (ThermoFisher Scientific) on the 7900 Fast Real-Time PCR System (Applied Biosystems). PCR products were analyzed on a 2% agarose gel.

[7] = 7-day differentiated human CD34+ cells, relative to non-treated cells

`NCc1cc(=O)[nH]o1` [Muscimol, muscimol] was tested, and the “Increase of platelet numbers” value (GABRR1 [1]) was 35.0%±13% and the “Increase of bone marrow MkPs” value (GABRR1 [2]) was 55.0%±26.7%.
With `Br.COc1ccc(-c2ccc(=N)n(CCCC(=O)O)n2)cc1` [SR95531] the “Increase of platelet numbers” value (GABRR1 [1]) was “did not affect platelet number significantly”, the “Decrease in megakaryocyte colonies” value (human CD34+ cells [3]) was 40% and the “Change of CD34+CD41+ population (MkP)” value (human CD34+ cells [4]; [7]) was “decreased dramatically”. The “Change of CD34+CD71+ population (EP)” value (human CD34+ cells [4]; [7]) was “decreased dramatically”, the “Frequency of all HSPCs tested” value (human CD34+ cells [4]; multicolor flow cytometry, 7 days of differentiation from CD34+ bone marrow cells) was “decreased the frequency of all HSPCs tested” and the “MkP frequency relative to non-treated cells” value (human CD34+ cells [4]; multicolor flow cytometry, 7 days of differentiation from CD34+ bone marrow cells, non-treated set to 1) was 40.3%±13.6%.
`NC/C=C/C(=O)O` [TACA, trans-4-aminocrotonic acid] was tested, and the “Increase of platelet numbers” value (GABRR1 [1]) was 24.6%±19.0% and the “Increase of bone marrow MkPs” value (GABRR1 [2]) was 23.3%±31.1%.
For `NCCCC(=O)O` [GABA, 4-aminobutanoic acid], the “GABA-induced currents in GR+ HSCs” value (GABRR1 [5]) was “significant currents were induced”, the “GABA-induced inward current in GR+ MkP cells” value (GABRR1 [5]; various membrane potentials) was “prominent GABA-induced inward current” and the Megakaryocyte-related gene expression (human CD34+ cells [6]) was “significantly increased”. For the same compound, the “Increase of bone marrow MkPs” value (GABRR1 [2]) was 63.7%±24.4%.
